Measurements from US20140206657A1, “BILE ACID ANALOG TGR5 AGONISTS” (City of Hope, priority 2013, published 2014).

Experiments:
human TGR5 = target: T1, human TGR5 (Homo sapiens, UniProt Q8TDU6); assay: cAMP assay, HEK293 cells stably expressing human TGR5; assay type: cell-based
T1 construct: expressed in transfected cells
T1 sequence (Q8TDU6 1-330): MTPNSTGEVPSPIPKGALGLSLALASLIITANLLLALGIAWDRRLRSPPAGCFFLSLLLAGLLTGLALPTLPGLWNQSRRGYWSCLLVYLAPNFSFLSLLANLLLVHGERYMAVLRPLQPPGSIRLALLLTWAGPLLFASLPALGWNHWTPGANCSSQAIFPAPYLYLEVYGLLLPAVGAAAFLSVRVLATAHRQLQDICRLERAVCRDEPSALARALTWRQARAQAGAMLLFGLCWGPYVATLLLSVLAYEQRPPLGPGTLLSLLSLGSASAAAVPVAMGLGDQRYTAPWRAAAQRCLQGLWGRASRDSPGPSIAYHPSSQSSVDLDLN
Protocol: The changes in cAMP elicited by these bile acid derivatives was determined after binding to the TGR5. […] HEK293 cells stably expressing human TGR5 were treated with increasing doses of ligand after 6 hours of stimulation, and intracellular cAMP levels were measured by luminescence. […] Data analysis to determine EC50 values was performed with GraphPad Prism software using a cAMP standard curve and sigmoidal dose-response (variable slope) equation based on dose-response curves with tested compounds.

Row | Structure (SMILES) | EC50 (human TGR5) [nM] | further results
1 | CC[C@H]1[C@H](O)[C@@H]2[C@H](CC[C@]3(C)[C@@H]([C@H](C)C[C@H](C)C(=O)O)CC[C@@H]23)[C@@]2(C)CC[C@@H](O)C[C@@H]12 [compound 24, 3α,7β-Dihydroxy-23(S)-methyl-6α-ethyl-5β-cholan-24-oic acid] | 710 | 
2 | CC[C@H]1C[C@@H]2[C@H](CC[C@]3(C)[C@@H]([C@H](C)C[C@H](C)C(=O)O)CC[C@@H]23)[C@@]2(C)CC[C@@H](O)C[C@@H]12 |  | melting point: 137.7 °C
3 | CC[C@@]1(O)CC[C@@]2(C)[C@H](CC[C@@H]3[C@@H]2CC[C@]2(C)[C@@H]([C@H](C)CCC(=O)O)CC[C@@H]32)C1 [compound 26, 3β-Ethyl-3α-hydroxy-LCA] |  | TGR5 activity / potency, in words (SAR statements) (human TGR5; assay not named in b266 and b269, b275 belongs to the cAMP example): large loss in potency
4 | C[C@H](C[C@H](C)C(=O)O)[C@H]1CC[C@H]2[C@@H]3CC[C@@H]4C[C@H](O)CC[C@]4(C)[C@H]3CC[C@]12C [compound 13, 23(S)-Methyl-3α-hydroxy-5β-cholan-24-oic acid] | 210 | 
